# Results: the METLIN SMRT retention time set (Domingo-Almenara et al. 2019)
# Assay: gradient 5% acetonitrile 3 min, to 50% in 2 min, to 85% in 15 min, held 3 min, 100 µL/min
# Details: column: Zorbax Extend-C18 2.1 x 50 mm; eluents: water / acetonitrile, 0.1% formic acid
# Method in brief: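 Retention time was recorded from adduct peaks, which were picked computationally and each inspected manually. Pure standards ran in mixtures of ~100 molecules on HPLC coupled to a quadrupole time-of-flight mass spectrometer, in positive and negative ionization mode, through a Zorbax Extend-C18 column (2.1 × 50 mm, 1.8 μm) at 100 μL/min. Eluents were water and acetonitrile, each with 0.1% formic acid.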
row,Structure (SMILES),RP-LC retention time [s]
1,O=C(Nc1ccc2c(c1)OCCO2)N1CCCn2nc(-c3cccs3)cc2C1,777
2,CC1=CS/C(=C(/C#N)C(=O)N2CCOCC2)N1c1ccccc1,635
3,Cc1ccc(-c2nnc(Cc3nc(-c4ccncc4)no3)o2)cc1F,814
4,Cn1cnc([N+](=O)[O-])c1Sc1ncn[nH]1,626
5,CCN(CC)CCNC(=O)c1nc(-c2oc3c(C)cccc3c2C)no1,677
6,COc1ccc(-c2cnc(NC(=O)[C@H]3CCCCN3S(=O)(=O)c3ccc(C)cc3)s2)cc1,1270
7,CCC(=O)N1CCc2cc(C)c(S(=O)(=O)NCc3ccco3)cc21,664
8,Cc1c(C(=O)NCC(C)C)cnn1-c1cc(-c2nc(C(C)(C)C)no2)ccn1,1150
9,CCn1ccc2c(cc(C(=O)Nc3cc(C)ccc3C)n2C)c1=O,721
10,CCc1c(C)nc2ncnn2c1N1CCCC1,733
11,O=c1n(Cc2ccccc2Cl)nc2n1CCCCC2,768
12,O=C(Cn1cnc2nc(N3CCC(C(=O)NC4CC4)CC3)sc2c1=O)NC1CCCC1,609
13,COc1ccc(-c2nc3cnccn3c2Nc2c(C)cccc2C)cc1OC,784
14,Cn1cc(C(=O)N2CCC(N(Cc3ccccc3)C3CCOCC3)CC2)cn1,573
15,O=C(O)CCN1C(=O)C2C3C=CC(C3)C2C1=O (configuration not stated),570
16,NC(=O)c1ccsc1NC(=O)c1ccccc1[N+](=O)[O-],669

row,Structure (SMILES),RP-LC retention time [s]
1,COc1c2c(cc3c1[C@@H]1Oc4c(ccc(O)c4CC=C(C)C)[C@@H]1CO3)OC(C)(C)C=C2,710
2,O=C1CCCc2cc(S(=O)(=O)N3CCC(C(=O)NC4CCCCCCC4)CC3)ccc2N1,814
3,Cc1ccc(-c2cc3c(=O)n(Cc4noc(CN5CCOCC5)n4)ccn3n2)cc1C,777
4,COc1ccc(NC(=O)C2CCCN(c3nccnc3Sc3ccccc3)C2)cc1OC (configuration not stated),969
5,CCOc1ccc(NC(=O)Nc2nccn(-c3ccc(Br)cc3)c2=O)cc1,1040
6,COc1cc(C(=O)Nc2sc3c(c2C(N)=O)CC(C)CC3)cc(OC)c1OC (configuration not stated),1020
7,Cc1ncc2c(n1)CCN(C(=O)c1ccc(Cl)cc1)C2,627
8,COC(=O)c1nnn(-c2ccc(OC)cc2)c1C(=O)OC,815
9,COc1ccc(-c2noc(-c3cn(C)c4ccc(C)cc4c3=O)n2)cc1OC,796
10,COc1ccc(OC)c(NC(=O)c2[nH]c3cc(C)sc3c2CN2CCOCC2)c1,705
11,COc1ccc(NC(=O)c2c(OC)cc(=O)n3c2CCCC3)c(OC)c1,877
12,CCNc1nc(C)cc(N2CCN(S(=O)(=O)c3ccc(OC)c(C)c3C)CC2)n1,764
13,COCCCNC(=O)c1ccc(-c2ccc(N3CCSCC3)nc2)cc1,646
14,CNC(=O)c1ccc(Nc2c(-c3ccc(OC)c(OC)c3)nc3cnccn23)cc1,606
15,CN1CCn2cc(S(=O)(=O)Nc3cccc(F)c3)cc2C1=O,687
16,C=CCNC(=O)c1nc(C(=O)N2CCCCCC2)cs1,733

# More lines, now with the values ahead:
row,RP-LC retention time [s],Structure (SMILES)
1,879,Cc1ccc(Cn2c(N3CCC(C(=O)NCC4CC4)CC3)nc3ccsc3c2=O)cc1
2,897,Cc1oc(-c2ccc(NC(=O)CCc3ccccc3)cc2)nc1Cn1cccn1
3,941,O=C(Cn1cncc(-c2nc(-c3cccs3)cs2)c1=O)Nc1cccc(Cl)c1
4,802,CCc1noc(NC(C)=O)c1-c1ccc(OC)c(S(=O)(=O)NCc2ccc(C)cc2)c1
5,688,O=C(NCc1cccs1)c1ccc2c(c1)NC(=O)C1CCCCN21 (configuration not stated)
6,760,Cc1ccccc1NC(=O)CN1C(=O)CC(C)S(=O)(=O)c2ccccc21 (configuration not stated)
7,1010,Cc1ccc(CNC(=O)c2nc3cccnc3n(CC(C)C)c2=O)cc1
8,638,O=C(Cn1c(C2CCCO2)nc2ccccc21)Nc1ccccc1 (configuration not stated)
9,798,CC1=C(c2ccc(F)cc2)S(=O)(=O)N=C1N1CCC(C(=O)NC2CCCC2)CC1
10,1060,COc1cccc(-n2c(=O)c3sccc3n(Cc3nc(-c4ccc(F)c(Cl)c4)no3)c2=O)c1
11,748,O=C(Cn1c(=O)c2cc(C3CC3)nn2c2ncccc21)NCc1ccc(F)cc1
12,1290,CCCCn1c(=O)c2ccccc2n(Cc2nc(-c3ccc(OC(C)C)cc3)no2)c1=O
13,979,O=C(Cn1c(=O)oc2ccccc21)N1CCC(Oc2nc3c(Cl)cccc3s2)CC1
14,738,COC(=O)c1ncn2c1C(=O)N(CCc1ccccc1)C(C)(C(=O)NC1CCCC1)C2 (configuration not stated)
15,560,Cn1c(=O)c(N2CCN(C(=O)c3cc(Cl)ccc3F)CC2)nc2ccncc21
16,730,O=C(CCc1c(-c2ccc(F)cc2)nc2ccccn12)Nc1cccc(Cl)c1
17,682,COc1cc(NC(=O)NCCc2nc3cccnc3n2-c2ccccc2)cc(OC)c1OC
18,653,O=C(CCc1c(-c2ccc(F)cc2)nc2ccccn12)Nc1ccccc1F

row,RP-LC retention time [s],Structure (SMILES)
1,704,Cc1ccccc1Cn1cc(-c2ccncc2)cc1C(=O)NCC1CC1
2,699,CCCNc1c(C(=O)OC)c(=O)[nH]c2ccc(F)cc12
3,654,Cc1ccc(-c2cc3c(=O)n(Cc4noc(CN5CCCC5)n4)ccn3n2)cc1
4,612,CC1CCCN(CCCNC(=O)Cn2c3ccccc3c3cnn(C)c(=O)c32)C1 (configuration not stated)
5,942,Cc1ccc(-c2cc3c4nnc(SCC(=O)NCCC(C)C)n4ccn3n2)cc1C
6,864,CN(C)c1nc2ncn3c(=O)n(CC(=O)NC4CCc5ccccc54)nc3c2s1 (configuration not stated)
7,854,CC(C)NC(=O)c1ccc(OCC2CCN(C(=O)c3ccc(F)cc3F)CC2)cc1
8,955,CCOc1ccccc1NC(=O)N1CCC2(CC1)NC(=O)c1ccc(Cl)cc1N2CC
9,838,COc1cccc(C2C(C(=O)NCCC(C)C)c3ccccc3C(=O)N2C2CC2)c1 (configuration not stated)
10,1000,O=C(Cc1ccc(Cl)cc1)Nc1cnc(-c2ccccc2)nc1
11,947,O=C(Cn1nc2c3cc(-c4ccccc4)nn3ccn2c1=O)Nc1ccc(Br)cc1
12,995,O=C(Nc1ccccc1Cl)C1CCCN(C(=O)Cc2cccc3ccccc23)C1 (configuration not stated)
13,838,CC(C)CCNC(=O)C1CCN(c2nc3ccsc3c(=O)n2-c2ccccc2)CC1
14,791,Cc1cccc(S(=O)(=O)N2CCCC(Cn3c(C4CC4)nc4cccnc43)C2)c1 (configuration not stated)
15,655,CCCNC(=O)C1CCCN(c2ccc(SCC(=O)Nc3ccccc3C)nn2)C1 (configuration not stated)
16,745,CCn1cc(CCNS(=O)(=O)c2ccccc2F)c2cccnc21
17,621,CCCNC(=O)C1CCN(c2ccc(SCC(=O)Nc3ccccc3OCC)nn2)CC1
